Source: ChEMBL document CHEMBL3124829, “Discovery of SCH 900188: A Potent Hepatitis C Virus NS5B Polymerase Inhibitor Prodrug As a Development Candidate” (ACS Med Chem Lett, 2014)
pEC50, pIC50: −log10 of the molar value. Activity calls are given as the source filed them. The rule behind the calls is not given here.

Key:
[1] = AUC (0 to 6 hrs) in rat at 10 mg/kg, po; format: ADME, organism-based; parameters: time < 6 hr, dose 10 mg/kg, route oral; settings: plasma
[2] = Inhibition of HCV genotype 1b C-terminal polyhistidine-tagged NS5B Cdelta21 RdRp expressed in Escherichia coli using DCoH75 as template assessed as incorporation of [33P]-CTP in polynucleotide sequence after 2 hrs by scintillation counting analysis; parameters: species or system Hepatitis C virus subtype 1b
[3] = system: Hepatitis C virus; assay: Antiviral activity against HCV infected in human hepatoma cells assessed as inhibition of viral RNA replication after 3 days by real time PCR analysis; format: functional, organism-based, Hepacivirus hominis; settings: 72 h
[4] = system: Rattus norvegicus; assay: AUC (0 to 6 hrs) in rat assessed as 4-Fluoro-6-((7-fluoro-4-oxo-3,4-dihydroquinazolin-6-yl)methyl)-8-(2-oxo-1,2-dihydropyridin-3-yl)-6H-furo[2,3-e]indole-7-carboxylic acid at 10 mg/kg, po; format: ADME, organism-based, Plasma; parameters: time < 6 hr, dose 10 mg/kg, route oral; settings: in vivo
[5] = species on record: Rattus norvegicus; assay: Ratio of drug level from liver to plasma in rat assessed as 4-Fluoro-6-((7-fluoro-4-oxo-3,4-dihydroquinazolin-6-yl)methyl)-8-(2-oxo-1,2-dihydropyridin-3-yl)-6H-furo[2,3-e]indole-7-carboxylic acid after 6 hrs; settings: other tissue
[6] = Oral bioavailability in dog; format: ADME, organism-based, Canis lupus familiaris; settings: in vivo
[7] = Mutagenic activity in micronucleus (unknown origin); format: ADME
[8] = Inhibition of HCV genotype 3a C-terminal polyhistidine-tagged NS5B Cdelta21 RdRp expressed in Escherichia coli using DCoH75 as template assessed as incorporation of [33P]-CTP in polynucleotide sequence after 2 hrs by scintillation counting analysis; parameters: species or system Hepatitis C virus subtype 3a
[9] = system: Salmonella typhimurium; assay: Mutagenic activity in Salmonella typhimurium by mini Ames test; format: toxicity, organism-based; settings: salmonella enterica subsp. enterica serovar typhimurium
[10] = AUC (0 to 24 hrs) in dog at 3 mg/kg, po; format: ADME, organism-based, Canis lupus familiaris; parameters: time < 24 hr, dose 3 mg/kg, route oral; settings: plasma
[11] = system: RNA-directed RNA polymerase (Hepacivirus hominis), O39930 [M414T]; assay: Inhibition of HCV NS5B RdRp M414T mutant active site
[12] = Cmax in rat; format: ADME, organism-based; settings: in vivo
[13] = Inhibition of HCV genotype 2a C-terminal polyhistidine-tagged NS5B Cdelta21 RdRp expressed in Escherichia coli using DCoH75 as template assessed as incorporation of [33P]-CTP in polynucleotide sequence after 2 hrs by scintillation counting analysis; parameters: species or system Hepatitis C virus subtype 2a
[14] = system: RNA-directed RNA polymerase (Hepacivirus hominis), O39930 [C316Y]; assay: Inhibition of HCV NS5B RdRp C316Y mutant active site
[15] = Half life in monkey at 1 mg/kg, iv; format: ADME, organism-based, Macaca mulatta; parameters: dose 1 mg/kg, route intravenous; settings: rhesus monkey, in vivo
[16] = system: RNA-directed RNA polymerase (Hepacivirus hominis), O39930 [G554D]; assay: Inhibition of HCV NS5B RdRp G554D mutant active site
[17] = system: RNA-directed RNA polymerase (Hepacivirus hominis), O39930 [M414T]; assay: Inhibition of HCV NS5B RdRp M414T mutant palm allosteric site
[18] = system: RNA-directed RNA polymerase (Hepacivirus hominis), O39930 [C316Y]; assay: Inhibition of HCV NS5B RdRp C316Y mutant palm allosteric site
[19] = Inhibition of HCV genotype 4a C-terminal polyhistidine-tagged NS5B Cdelta21 RdRp expressed in Escherichia coli using DCoH75 as template assessed as incorporation of [33P]-CTP in polynucleotide sequence after 2 hrs by scintillation counting analysis; parameters: species or system Hepatitis C virus subtype 4a
[20] = Clearance in iv dosed rat; format: ADME, organism-based; settings: in vivo
[21] = Clearance in iv dosed dog; format: ADME, organism-based, Canis lupus familiaris; settings: in vivo
[22] = Inhibition of HCV genotype 1a C-terminal polyhistidine-tagged NS5B Cdelta21 RdRp expressed in Escherichia coli using DCoH75 as template assessed as incorporation of [33P]-CTP in polynucleotide sequence after 2 hrs by scintillation counting analysis; parameters: species or system Hepatitis C virus subtype 1a
[23] = Cmax in monkey; format: ADME, organism-based, Macaca mulatta; settings: rhesus monkey, in vivo
[24] = AUC (0 to 24 hrs) in rat at 10 mg/kg, po; format: ADME, organism-based; parameters: time < 24 hr, dose 10 mg/kg, route oral; settings: plasma
[25] = Cmax in dog; format: ADME, organism-based, Canis lupus familiaris; settings: in vivo
[26] = Half life in rat at 3 mg/kg, iv; format: ADME, organism-based; parameters: dose 3 mg/kg, route intravenous; settings: in vivo
[27] = Oral bioavailability in monkey; format: ADME, organism-based, Macaca mulatta; settings: rhesus monkey, in vivo
[28] = Half life in dog at 1 mg/kg, iv; format: ADME, organism-based, Canis lupus familiaris; parameters: dose 1 mg/kg, route intravenous; settings: in vivo
[29] = Oral bioavailability in rat; format: ADME, organism-based; settings: in vivo
[30] = system: RNA-directed RNA polymerase (Hepacivirus hominis), O39930 [G554D]; assay: Inhibition of HCV NS5B RdRp G554D mutant palm allosteric site
[31] = Clearance in iv dosed monkey; format: ADME, organism-based, Macaca mulatta; settings: rhesus monkey, in vivo
[32] = AUC (0 to 24 hrs) in monkey at 3 mg/kg, po; format: ADME, organism-based, Macaca mulatta; parameters: time < 24 hr, dose 3 mg/kg, route oral; settings: rhesus monkey, plasma

Chain of RNA-directed RNA polymerase (Hepacivirus hominis), O39930 [G554D] (O39930 entry or part of it G554D): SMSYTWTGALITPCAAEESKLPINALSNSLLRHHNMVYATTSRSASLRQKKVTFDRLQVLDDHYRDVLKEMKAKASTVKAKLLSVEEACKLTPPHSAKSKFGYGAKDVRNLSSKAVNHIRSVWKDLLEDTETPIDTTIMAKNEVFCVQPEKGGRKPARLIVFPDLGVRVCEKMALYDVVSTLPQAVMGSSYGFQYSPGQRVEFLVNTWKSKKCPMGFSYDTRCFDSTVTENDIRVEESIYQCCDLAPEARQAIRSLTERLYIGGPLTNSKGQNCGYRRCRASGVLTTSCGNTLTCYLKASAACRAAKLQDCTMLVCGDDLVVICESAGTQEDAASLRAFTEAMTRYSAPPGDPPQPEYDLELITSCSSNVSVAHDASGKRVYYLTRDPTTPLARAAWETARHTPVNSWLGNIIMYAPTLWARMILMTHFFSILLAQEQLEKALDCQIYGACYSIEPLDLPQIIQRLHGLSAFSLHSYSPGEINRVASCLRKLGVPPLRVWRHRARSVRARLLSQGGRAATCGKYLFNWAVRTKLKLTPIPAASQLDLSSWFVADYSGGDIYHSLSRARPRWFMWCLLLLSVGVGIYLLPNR
Chain of RNA-directed RNA polymerase (Hepacivirus hominis), O39930 [C316Y] (O39930 entry or part of it C316Y): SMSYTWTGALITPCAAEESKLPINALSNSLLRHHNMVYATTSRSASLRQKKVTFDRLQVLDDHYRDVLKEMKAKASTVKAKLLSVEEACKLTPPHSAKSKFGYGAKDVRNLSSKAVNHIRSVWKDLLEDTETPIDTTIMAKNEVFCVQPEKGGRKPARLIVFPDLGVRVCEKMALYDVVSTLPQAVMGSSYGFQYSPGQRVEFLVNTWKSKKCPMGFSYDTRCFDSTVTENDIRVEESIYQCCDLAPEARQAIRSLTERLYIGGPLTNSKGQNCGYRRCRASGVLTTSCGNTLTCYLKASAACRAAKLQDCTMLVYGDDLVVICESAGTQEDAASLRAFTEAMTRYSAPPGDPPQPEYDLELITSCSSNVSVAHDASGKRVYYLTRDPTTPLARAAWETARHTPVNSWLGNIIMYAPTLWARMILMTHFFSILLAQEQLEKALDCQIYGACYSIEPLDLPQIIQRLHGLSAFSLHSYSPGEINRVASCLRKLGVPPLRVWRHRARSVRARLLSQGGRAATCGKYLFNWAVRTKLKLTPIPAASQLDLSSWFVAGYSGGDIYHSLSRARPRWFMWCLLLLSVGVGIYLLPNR
Chain of RNA-directed RNA polymerase (Hepacivirus hominis), O39930 [M414T] (O39930 entry or part of it M414T): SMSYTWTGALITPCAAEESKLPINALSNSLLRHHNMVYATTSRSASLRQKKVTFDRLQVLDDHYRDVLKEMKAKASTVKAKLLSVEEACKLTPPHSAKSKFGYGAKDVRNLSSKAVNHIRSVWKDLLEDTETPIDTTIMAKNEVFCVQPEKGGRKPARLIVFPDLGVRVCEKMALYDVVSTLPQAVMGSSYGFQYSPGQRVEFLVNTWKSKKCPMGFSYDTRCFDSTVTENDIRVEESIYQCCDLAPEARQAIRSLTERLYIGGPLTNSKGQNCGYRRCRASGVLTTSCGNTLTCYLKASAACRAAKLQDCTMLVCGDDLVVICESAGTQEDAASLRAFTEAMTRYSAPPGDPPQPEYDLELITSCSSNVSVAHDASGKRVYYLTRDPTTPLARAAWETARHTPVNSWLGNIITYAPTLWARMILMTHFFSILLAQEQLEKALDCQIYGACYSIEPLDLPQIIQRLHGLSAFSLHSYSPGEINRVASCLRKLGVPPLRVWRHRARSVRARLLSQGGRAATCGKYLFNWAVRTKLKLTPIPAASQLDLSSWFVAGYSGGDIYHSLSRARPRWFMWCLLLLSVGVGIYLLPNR

`Nc1nc2cc(F)c(Cn3c(C(=O)O)c(-c4ccc[nH]c4=O)c4c5occc5c(F)cc43)cc2c(=O)[nH]1` showed an AUC(0-t) at 6 h [1] of 0.02 µM·h, a pIC50 [2] of 8.15 and a pEC50 [3] of 8.15.
In the case of `Cc1cc2c(-c3ccc[nH]c3=O)c(C(=O)NS(=O)(=O)C3CC3)n(Cc3cc(C(N)=O)ccc3F)c2cc1F`, the pIC50 [2] was 8.40 and the pEC50 [3] was 7.30.
`Cn1cnc2cc(F)c(Cn3c(C(=O)O)c(-c4ccc[nH]c4=O)c4c5occc5c(F)cc43)cc2c1=O` showed an AUC(0-t) at 6 h [1] of 0.17 µM·h, a pIC50 [2] of 8.52 and a pEC50 [3] of 6.60.
`CCc1ccc2c(c1)c(-c1ccc[nH]c1=O)c(C(=O)NS(=O)(=O)C1CC1)n2Cc1cc(O)ccc1F` gave a pIC50 [2] of 8.30 and a pEC50 [3] of 7.00.
With `CCc1cc2c(-c3ccc[nH]c3=O)c(C(=O)NS(=O)(=O)C3CC3)n(Cc3cc(C(N)=O)ccc3F)c2cc1F` the pIC50 [2] was 8.30 and the pEC50 [3] was 7.22.
Molecule `O=C(O)c1ccc(F)c(Cn2c(C(=O)O)c(-c3ccc[nH]c3=O)c3c4occc4c(F)cc32)c1` has a pIC50 [2] of 8.30 and a pEC50 [3] of 6.15.
In the case of `CN(C)CCCOC(=O)c1c(-c2ccc[nH]c2=O)c2c3occc3c(F)cc2n1Cc1cc2c(=O)[nH]cnc2cc1F`, the AUC [4] was 2.3 µM·h, the Ratio [5] was 0.4 and the pIC50 [2] was 6.96. It also gave a pEC50 [3] of 7.96.
With `CN(C)CCCCOC(=O)c1c(-c2ccc[nH]c2=O)c2c3occc3c(F)cc2n1Cc1cc2c(=O)[nH]cnc2cc1F` the AUC [4] was 0.79 µM·h, the pIC50 [2] was 7.12 and the pEC50 [3] was 7.85.
`NC(=O)c1ccc(F)c(Cn2c(C(=O)NS(=O)(=O)C3CC3)c(-c3ccc[nH]c3=O)c3c4occc4c(F)cc32)c1` showed an AUC(0-t) at 6 h [1] of 0.21 µM·h, a pIC50 [2] of 8.30 and a pEC50 [3] of 8.00.
With `Cc1ccc2c(c1)c(-c1ccc[nH]c1=O)c(C(=O)NS(=O)(=O)C1CC1)n2Cc1cc(C(N)=O)ccc1F` the pIC50 [2] was 8.40.
With `CCOC(=O)c1c(-c2ccc[nH]c2=O)c2c3occc3c(F)cc2n1Cc1cc2c(=O)[nH]cnc2cc1F` the AUC [4] was 0.22 µM·h, the pIC50 [2] was 8.05 and the pEC50 [3] was 7.66.
Work on `CCOC(=O)c1c(-c2ccc[nH]c2=O)c2c3occc3c(F)cc2n1Cc1cc2c(=O)n(COC(=O)C(C)(C)C)cnc2cc1F` yielded a pIC50 [2] of 6.40 and a pEC50 [3] of 7.16.
`CC(=O)c1ccc(F)c(Cn2c(C(=O)O)c(-c3ccc[nH]c3=O)c3c4occc4c(F)cc32)c1` gave an AUC(0-t) at 6 h [1] of 8.8 µM·h, a pIC50 [2] of 7.70 and a pEC50 [3] of 7.15.
Molecule `CCc1ccc2c(c1)c(-c1ccc[nH]c1=O)c(C(=O)NS(=O)(=O)C1CC1)n2Cc1cc(C(N)=O)ccc1F` has a pIC50 [2] of 7.92 and a pEC50 [3] of 7.52.
`O=C(O)c1c(-c2ccc[nH]c2=O)c2c3occc3c(F)cc2n1Cc1cc2c(=O)[nH]c(=O)[nH]c2cc1F` showed an AUC(0-t) at 6 h [1] of 8.3 µM·h, a pIC50 [2] of 8.40 and a pEC50 [3] of 8.22.
Molecule `NC(=O)c1ccc(F)c(Cn2c(C(=O)O)c(-c3ccc[nH]c3=O)c3c4occc4c(F)cc32)c1` has a pIC50 [2] of 8.40.
`CCc1ccc2c(c1)c(-c1ccc[nH]c1=O)c(C(=O)NS(=O)(=O)C1CC1)n2Cc1cc(C#N)ccc1F` gave a pIC50 [2] of 8.15 and a pEC50 [3] of 7.10.
`CCc1ccc2c(c1)c(-c1ccc[nH]c1=O)c(C(=O)NS(=O)(=O)C1CC1)n2Cc1cc(F)ccc1F` gave a pIC50 [2] of 8.52 and a pEC50 [3] of 7.40.
With `O=C(O)c1c(-c2ccc[nH]c2=O)c2c3occc3c(F)cc2n1Cc1cc2c(=O)[nH]cnc2cc1F` the bioavailability [6] was 4%, the AUC(0-t) at 6 h [1] was 4.3 µM·h and the Activity [7] was “Non-toxic”. For the same molecule, the pIC50 [8] was < 5.30, the Activity [9] was “Non-toxic” and the AUC(0-t) at 24 h [10] was 0.4 µM·h. For the same molecule, the inhibition [11] was “Active”, the Cmax [12] was 1400 nM and the pIC50 [13] was < 5.30. For the same molecule, the inhibition [14] was “Active”, the half-life [15] was 8.9 h and the inhibition [16] was “Active”. For the same molecule, the inhibition [17] was “inactive”, the inhibition [18] was “inactive” and the pIC50 [19] was < 5.30. It also gave a clearance [20] of 0.2 mL/min/kg, a clearance [21] of 11 mL/min/kg and a pIC50 [22] of 8.15. For the same molecule, the pIC50 [2] was 8.30, the Cmax [23] was 800 nM and the AUC(0-t) at 24 h [24] was 10 µM·h. For the same molecule, the Cmax [25] was 100 nM, the half-life [26] was 9.4 h and the bioavailability [27] was 5%. For the same molecule, the half-life [28] was 3.2 h, the bioavailability [29] was 0.7% and the inhibition [30] was “inactive”. For the same molecule, the clearance [31] was 0.6 mL/min/kg, the pEC50 [3] was 8.22 and the AUC(0-t) at 24 h [32] was 8 µM·h.
`CCc1ccc2c(c1)c(-c1ccc[nH]c1=O)c(C(=O)NS(=O)(=O)C1CC1)n2Cc1cc(S(N)(=O)=O)ccc1F` gave a pIC50 [2] of 8.30 and a pEC50 [3] of 7.10.
`NC(=O)c1ccc(F)c(Cn2c(C(=O)NS(=O)(=O)C3CC3)c(-c3ccc[nH]c3=O)c3cc(C(F)(F)F)c(F)cc32)c1` gave a pIC50 [2] of 8.10 and a pEC50 [3] of 6.82.
`O=C(O)c1c(-c2ccc[nH]c2=O)c2c3occc3c(F)cc2n1Cc1cc2[nH]c(=O)oc2cc1F` showed a pIC50 [2] of 5.70 and a pEC50 [3] of 5.70.
`Cn1c(=O)[nH]c(=O)c2cc(Cn3c(C(=O)O)c(-c4ccc[nH]c4=O)c4c5occc5c(F)cc43)c(F)cc21` gave a pIC50 [2] of 8.22 and a pEC50 [3] of 6.52.
`Cc1nc2cc(F)c(Cn3c(C(=O)O)c(-c4ccc[nH]c4=O)c4c5occc5c(F)cc43)cc2c(=O)[nH]1` gave an AUC(0-t) at 6 h [1] of 0.85 µM·h, a pIC50 [2] of 8.40 and a pEC50 [3] of 7.70.
Molecule `CCc1ccc2c(c1)c(-c1ccc[nH]c1=O)c(C(=O)NS(=O)(=O)C1CC1)n2Cc1cc(S(C)(=O)=O)ccc1F` has a pIC50 [2] of 8.10 and a pEC50 [3] of 7.10.
For `NC(=O)c1ccc(F)c(Cn2c(C(=O)NS(=O)(=O)C3CC3)c(-c3ccc[nH]c3=O)c3cc(C(F)(F)F)ccc32)c1`, the pIC50 [2] was 8.22 and the pEC50 [3] was 6.77.
`CC(C)(C)C(=O)OCn1cnc2cc(F)c(Cn3c(C(=O)O)c(-c4ccc[nH]c4=O)c4c5occc5c(F)cc43)cc2c1=O` gave a pIC50 [2] of 7.89 and a pEC50 [3] of 8.00.
`O=C(O)c1c(-c2ccc[nH]c2=O)c2c3occc3c(F)cc2n1Cc1cc2[nH]c(=O)[nH]c2cc1F` showed an AUC(0-t) at 6 h [1] of 4 µM·h, a pIC50 [2] of 8.15 and a pEC50 [3] of 8.00.
With `CC(C)(C)C(=O)OCn1cccc(-c2c(C(=O)O)n(Cc3cc4c(=O)[nH]cnc4cc3F)c3cc(F)c4ccoc4c23)c1=O` the pIC50 [2] was 7.29 and the pEC50 [3] was 7.17.
